This passage reports IC50 results from patent US9943504B2, “Arginine methyltransferase inhibitors and uses thereof” (Epizyme, Inc., priority 2013, dated 2018).

This assay addresses T1, human PRMT6 (Homo sapiens, UniProt Q96LA8).
T1 construct: Flag-PRMT6-His was eluted with 200 ug/ml FLAG peptide in the same buffer; made in house; host or cells: HEK 293F cells (BacMam baculovirus)
The assay can be described thus: PRMT6 Biochemical Assay. Particulars: biochemical evaluation, peptide substrate. The text has this: S-adenosylmethionine (SAM), S-adenosylhomocysteine (SAH), bicine, Tween20, dimethylsulfoxide (DMSO), bovine skin gelatin (BSG), sodium butyrate and Tris(2-carboxyethyl)phosphine hydrochloride solution (TCEP) were purchased from Sigma-Aldrich at the highest level of purity possible. ^3H-SAM was purchase from American Radiolabeled Chemicals with a specific activity of 80 Ci/mmol. 384-well streptavidin Flashplates were purchased from PerkinElmer.
Peptide representative of human histone H4 residues 36-50 was synthesized with an N-terminal linker-affinity tag motif and a C-terminal amide cap by 21st Century Biochemicals. The peptide was purified by high-performance liquid chromatography (HPLC) to greater than 95% purity and confirmed by liquid chromatography mass spectrometry (LC-MS). The sequence was Biot-Ahx-[…]-amide and contained a monomethylated lysine at position 44 (SEQ ID NO.: 5). […]
The assays were all performed in a buffer consisting of 20 mM Bicine (pH=7.6), 1 mM TCEP, 0.005% BSG, and 0.002% Tween 20, prepared on the day of use. […] The plates were then read in a PerkinElmer TopCount plate reader to measure the quantity of ^3H-labeled peptide bound to the Flashplate surface, measured as disintegrations per minute (dpm) or alternatively, referred to as counts per minute (cpm). […]

T1 sequence (Q96LA8 with tags, fused parts or gaps): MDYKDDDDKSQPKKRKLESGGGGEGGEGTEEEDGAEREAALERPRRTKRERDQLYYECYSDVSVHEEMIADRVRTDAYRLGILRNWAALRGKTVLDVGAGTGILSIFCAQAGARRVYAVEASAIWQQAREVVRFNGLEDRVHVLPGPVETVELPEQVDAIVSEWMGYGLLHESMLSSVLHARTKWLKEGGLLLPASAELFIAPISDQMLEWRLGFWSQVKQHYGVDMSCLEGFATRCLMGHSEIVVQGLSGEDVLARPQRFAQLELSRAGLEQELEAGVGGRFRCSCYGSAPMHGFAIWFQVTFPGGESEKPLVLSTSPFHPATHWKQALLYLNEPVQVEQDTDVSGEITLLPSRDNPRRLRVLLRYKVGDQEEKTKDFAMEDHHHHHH

In turn, `CN(CCN)Cc1n[nH]c2cccc(OCc3ccccc3)c12` [Compound 1] returned a concentration for half-maximal inhibition (IC50) of no more than 0.1 µM.
